Measured values reported in patent publication US10537103B2, “Antibacterial composition containing an isomer mixture of monosaccharide alkyl monoacetals or monoethers” (TEREOS STARCH & SWEETENERS BELGIUM, priority 2014, dated 2020).
≈ marks a conversion by molar mass, not a printed value. Like-named read-outs stand apart in the source and are kept apart here.

Assays:
[1] = tested on: L. monocytogenes strains (CIP 103575, LM1, LM2, LM3); assay: MIC on a wider panel of strains (Example 10), microdilution; assay type: cell-based; conditions: Listeria monocytogenes, CIP103575
Method: The cultures studied, freshly isolated (after incubation on a blood agar at 37° C. for 18 h), are taken up in sterile water (10 mL) until obtaining a 0.5 McFarland (Mc) suspension i.e. 1 to 1 to 2×10^8 CFU (bacteria)/cm^3. The bacterial suspension was then diluted to obtain a final concentration of 1×10^6 CFU/cm^3. Each well contains an identical quantity of Mueller-Hinton medium (a rich medium for bacterial culture) and bacteria with final [concentration of] 0.5×10^6 CFU/cm^3. The test compounds of interest are solubilized in ethanol or DMSO at 25 mg/mL before being diluted to different concentrations two by two. On the multiwell plate, a first series has been planned comprising the culture medium without the test compound of interest. It corresponds to the growth control (control well). These controls serve as reference for comparing bacterial growth with that of the subsequent wells comprising different concentrations of the test compound of interest. The second series of wells comprises the mother solution for the test compound of interest for a concentration in the wells of 256 mg/L (7 mM). Each series of wells was diluted two by two until the last series for a final concentration of 0.25 mg/L (0.0007 mM). Each concentration is duplicated in the same plate. The plate is incubated for 18 h at 37° C. […] If there is antibacterial activity, the bacterial growth is inhibited, which means that no turbidity or bacterial residue is present. The minimum inhibitory concentrations (MIC) are tested on Gram-positive bacterial strains according to the recommendations of the “Clinical Laboratory Standards Institute” (Clinical-Laboratory-Standards-Institute, 6th ed. Approved standard M100-S17. CLSI, Wayne, Pa., 2007). The clinical strains have been isolated in the Hospice de Lyon. Listeria: L. monocytogenes (CIP 103575), clinical strain isolated from hemoculture (015189074801, LM1), a strain isolated from cerebrospinal liquid (015170199001, LM2), clinical strains isolated from hemoculture (015181840701, LM3). The cultures studied, freshly isolated (after incubation on a blood agar at 37° C. for 18 h), are taken up in sterile water (10 mL) until obtaining a 0.5 McFarland (Mc) suspension i.e. At 10^8 CFU (bacteria)/cm^3. The bacterial suspension was then diluted to obtain a final concentration of 10^6 CFU/cm^3.

[2] = Water solubility of test solutions; assay type: physicochemical; conditions: solutions diluted in water, 2.5% m ethanol; precipitates formed
Method: Tests have been conducted on Gram-positive bacteria with methyl glucopyranoside derivatives. […] After sterilization the solutions are diluted in water. […] Because precipitates formed in the solutions, the effect of these methyl glucopyranoside C10 and C12 acetals was not able to be evaluated. The results obtained for antimicrobial tests on the 3 bacterial strains L. monocytogenes (CIP 103575), E. faecalis (ATCC® 29212) and S. aureus (ATCC® […]) are summarized in Table 1.

[3] = L. monocytogenes CIP 103575, read-out: MIC Listeria CIP 103575

Question: With `CCCCCCCCCCCC1OCC2O[C@H](OC)C(O)C(O)[C@@H]2O1` (stereo partly drawn) [Compound 1e, Methyl 4,6-O-Dodecylidene α-D-glucopyranoside] as the molecule, how does the MIC [1, 3] read?
Answer: The MIC was 64 µg/mL (≈ 178 µM).

Question: What about the water solubility [2] of the same molecule?
Answer: Its water solubility is “low water solubility”.

Question: What does the source list for `CCCCCCCCCCCC1OCC2O[C@@H](OC)C(O)C(O)[C@@H]2O1` (stereo partly drawn) [Compound 1f, Methyl 4,6-O-Dodecylidene β-D-glucopyranoside]?
Answer: MIC [1, 3]: 16 µg/mL (≈ 44.4 µM); MIC ([1]; clinical strain from hemoculture 015181840701, read-out: MIC Listeria LM3): 64 µg/mL (≈ 178 µM); MIC ([1]; clinical strain from hemoculture 015189074801, read-out: MIC Listeria LM1): 16 µg/mL (≈ 44.4 µM); MIC ([1]; strain from cerebrospinal liquid 015170199001, read-out: MIC Listeria LM2): 16 µg/mL (≈ 44.4 µM)
